Reference: US20100028259A1, “USE OF ORGANIC CATION TRANSPORTERS FOR CANCER DIAGNOSIS AND THERAPY” (The Regents of the University of California, priority 2006, published 2010)
Where two headings read alike, the source gives them in different places.

How the values were obtained:
[1] = test system: HEK-hOCT3 cells; test: MTT drug sensitivity assay in HEK-hOCT3 cells; format: cell-based, human
Description: (§1) Cytotoxicity of the platinum-based compounds was measured by MTT (thiazolyl blue tetrazolium bromide) assay. Cells were seeded in 100 μl of the culture medium without any antibiotics in 96-well plates at a predetermined cell density. For HEK 293 cells, poly-D-lysine coated plates were used. […] For the OCT inhibitor studies, the inhibitors (i.e., disopyramide or cimetidine) were added to the medium at a specified concentration immediately before the addition of the platinum-based compounds. After incubation for a specified time period, the drug-containing medium was replaced with fresh, drug-free medium and the incubation was continued for a total of 72 hours (start from the addition of platinum-based compounds). Then, the MTT assay was performed similarly as described in Alley et al., Cancer Res., 48:589-601 (1988). […] The maximal cell growth was the cell growth in the medium without any platinum-based compounds; C is the concentration of the platinum-based compound, and γ is the slope factor.
(§2) Briefly, the cells were seeded in 96-well plates at a density of 5,000 cells/well for the transfected MDCK cells or 12,000 cells/well for the transfected HEK 293 cells. The platinum-based drugs were added on the following day. After the specified time periods of drug exposure, the drug-containing medium was replaced with fresh, drug-free medium, and the incubation was continued for a total of 72 hours (start from the time when the drug was added). After incubation, the cell growth was determined by an MTT assay. Data are expressed as mean±SD from 3 to 6 independent experiments with each performed in quadruplicate. The resistance factor (RF) was defined as the ratio of the mean IC50 value in the MOCK cells to that in the OCT-transfected cells.

[2] = test system: HEK-hOCT2 cells; test: MTT drug sensitivity assay in HEK-hOCT2 cells; format: cell-based, human
Description: as §1, §2

[3] = test system: HCT116; test: MTT drug sensitivity, colon cancer cell line HCT116; format: cell-based, human
Description: as §1
The cell seeding density was 6,000-, 8,000-, 6,000-, 15,000-12,000- and 4,000 cells/well for HCT116, HT29, RKO, SW620, LS180, and DLD cells, respectively. When cimetidine (1.5 mM) was used, it was added to the wells immediately before the addition of the platinum-based drugs. The resistance factor (RF) was defined as the ratio of the mean IC50 value in the presence to that in the absence of cimetidine. Data are expressed as mean±SD from six measurements, and each measurement was performed in quadruplicate.

[4] = test system: HEK-MOCK cells; test: MTT drug sensitivity assay in HEK-MOCK cells (control of HEK-hOCT3); format: cell-based, human; conditions: Table 3
Description: Cytotoxicity of the platinum-based compounds was measured by MTT (thiazolyl blue tetrazolium bromide) assay. Cells were seeded in 100 μl of the culture medium without any antibiotics in 96-well plates at a predetermined cell density. For HEK 293 cells, poly-D-lysine coated plates were used. After overnight incubation, the platinum-based compounds were then added to the culture medium to give the indicated final concentrations. For the OCT inhibitor studies, the inhibitors (i.e., disopyramide or cimetidine) were added to the medium at a specified concentration immediately before the addition of the platinum-based compounds. After incubation for a specified time period, the drug-containing medium was replaced with fresh, drug-free medium and the incubation was continued for a total of 72 hours (start from the addition of platinum-based compounds). Then, the MTT assay was performed similarly as described in Alley et al., Cancer Res., 48:589-601 (1988). […] The maximal cell growth was the cell growth in the medium without any platinum-based compounds; C is the concentration of the platinum-based compound, and γ is the slope factor.
as §2

[5] = test system: HEK-hOCT2 cells; test: Cellular accumulation of platinum in HEK-hOCT2 cells (ICP-MS); format: in vitro ADME, human; conditions: 2-hr exposure
Description: For the inhibitor studies, the incubation medium also contained disopyramide (150 μM). […] For the inhibitor studies, the incubation medium also contained cimetidine (1.5 mM). […] After drug exposure, the cells were washed with ice-cold PBS three times and harvested by scraping and centrifugation. The cell-associated platinum was determined by ICP-MS and normalized for protein content. Data are expressed as mean±SD from a single experiment performed in triplicate. Experiments were replicated for OCT1 and OCT2, and similar results were obtained.
The cellular accumulation of platinum was determined as described in Holzer et al., Mol. Pharmacol., 66:817-823 (2004) with some modifications. Briefly, the cells were grown in 100 mm×20 mm dishes in the culture medium without any antibiotics to over 90% confluence. For HEK 293 cells, poly-D-lysine coated dishes were used. For platinum accumulation, the cells were incubated in the culture medium containing the indicated concentrations of the platinum compounds at 37° C. in 5% CO2 for 2 hr unless specified. After incubation, the dishes were immediately placed on ice and the cells were washed with 6 ml of ice-cold PBS for three times and collected with a rubber policeman. The cell pellets were obtained by centrifugation at 400×g and at 4° C. for 15 min. For the OCT inhibitor studies, the incubation medium also contained the indicated inhibitor (i.e., disopyramide or cimetidine) in addition to the platinum-based compounds. The resulting cell pellets were then dissolved into 200 μl of 70% nitric acid at 65° C. for at least 2.5 hours, and then distilled water containing 10 ppb of iridium (Sigma) and 0.1% Triton X-100 was added to the samples to dilute nitric acid to 7%. The platinum content was measured by inductively plasma coupled mass spectrometry (ICP-MS) in the Analytical Facility at the University of California at Santa Cruz (Santa Cruz, Calif.). Cell lysates from a set of identical cultures were used for BCA protein assay.

O=C1[O][Pt]2([NH][C@@H]3CCCC[C@H]3[NH]2)[O]C1=O [oxaliplatin]
IC50 ([1]; drug exposure 7 hour): 2220 ± 410 nM | IC50 ([1]; drug exposure 24 hour): 620 ± 190 nM | IC50 ([1]; drug exposure 72 hour): 690 ± 190 nM | IC50 ([2]; co-incubation with cimetidine 1.5 mM, read-out: IC50 in HEK-hOCT2, cimetidine-treated): 2810 ± 1630 nM | IC50 ([2]; drug exposure 7 hour, read-out: IC50 HEK-hOCT2): 39 ± 25 nM | IC50 ([2]; drug exposure 24 hour, read-out: IC50 HEK-hOCT2): 20 ± 1 nM | IC50 ([2]; drug exposure 72 hour, read-out: IC50 HEK-hOCT2): 19 ± 4 nM | IC50 ([3]; HCT116, absence of cimetidine, read-out: IC50 Control): 2370 ± 1440 nM | IC50 ([3]; HCT116, cimetidine 1.5 mM, read-out: IC50 Cimetidine-treated): 18800 ± 6190 nM | IC50 ([4]; drug exposure 7 hour): 1470 ± 280 nM | IC50 ([4]; drug exposure 24 hour): 470 ± 50 nM | IC50 ([4]; drug exposure 72 hour): 470 ± 120 nM | cellular platinum accumulation rate in HEK-hOCT2, cimetidine ([5]; 0.3 μM, cimetidine 1.5 mM): 1.80±0.13 pmol/mg protein-hr | cellular platinum accumulation rate in HEK-hOCT2 ([5]; drug 0.3 μM): 20.2±1.54 pmol/mg protein-hr
